# Measurements reported in patent US6486190B1, “5-(2-imidazolinylamino)-benzimidazole derivatives, their preparation and their use as α-adrenoceptor agonists with improved metabolic stability” (The Procter & Gamble Company, priority 1997, dated 2002).
# Like-named read-outs stand apart in the source and are kept apart here.
# Experiments:
# alpha-2 adrenoceptors = assay: alpha-2 adrenergic activity and selectivity (receptor binding affinities and in vitro functional potencies); assay type: biochemical
# Method: (§1) The pharmacological activity and selectivity of these compounds can be determined using published test procedures. […] (See, e.g., The Alpha-2 Adrenergic Receptors, L. E. Limbird, ed., Humana Press, Clifton, N.J.) The following in vivo assays are typically conducted in rodents or other species. Central nervous system activity is determined by measuring locomotor activity as an index of sedation. (See, e.g., Spyraki, C. & H. Fibiger, “Clonidine-induced Sedation in Rats: Evidence for Mediation by Postsynaptic Alpha-2 Adrenoreceptors”, Journal of Neural Transmission, Vol. 54 (1982), pp. 153-163). Nasal decongestant activity is measured using rhinomanometry as an estimate of nasal airway resistance. […] Antiglaucoma activity is determined by measuring intraocular pressure. […] Antidiarrheal activity is determined by measuring the ability of the compounds to inhibit prostaglandin-induced diarrhea. […] Efficacy in treating irritable bowel syndrome is determined by measuring the ability of compounds to reduce the stress-induced increase in fecal output. […] Antiasthma activity is determined by measuring the effect of the compound on bronchoconstriction associated with pulmonary challenges such as inhaled antigens. […] Activity in cough is determined by measuring the number and latency of the cough response to respiratory challenges such as inhaled citric acid. […]
# [1] = pharmacokinetic studies in primates: parent and N-methyl metabolite in urine after oral dosing; assay type: in vivo, cynomolgus monkeys
# Method: For the pharmacokinetic studies, the compounds are administered orally to cynomolgus monkeys and measurements of administered benzimidazole compounds and corresponding N-methyl metabolites are made using 100 μL aliquots of urine collected over various time-periods post-dose. Typically, a chemical homolog or stable-isotope-labeled internal standard is added to each sample and then diluted 100× in water. Ten μL of prepared sample is then analyzed by gradient HPLC, with tandem mass spectrometry detection. Single ion reaction monitoring schemes are employed to selectively detect the test compound, its N-methyl metabolite (if present), and the internal standard.
# [2] = precision cut liver slice assay (metabolic stability, N-methylation); assay type: in vitro ADME; conditions: for metabolic N-methylation (N-methyl metabolites): in these assays: precision cut liver slice assay and pharmacokinetic studies in primates
# Method: Metabolic stability of the compounds described above is evaluated in vitro in a precision cut liver slice assay and in vivo in pharmacokinetic studies in primates. The precision cut liver slice assay is a well recognized, validated in vitro model to study xenobiotic metabolism in animal species and humans. (See Ekins, S. “Past, present, and future applications of precision-cut liver slices for in vitro xenobiotic metabolism.” (Department of Medicine and Therapeutics, University of Aberdeen, UK.) Drug-Metab-Rev. (November, 1996) Vol. 28, No. 4: pp. 591-623). […] The assay provides data on the biotransformations taking place within intact hepatocytes of the species of interest. Thus the full compliment of phase I and phase II metabolic enzymes are available to metabolize the drug as is the case in vivo.
# central nervous system = central nervous system activity (locomotor activity as an index of sedation); set-up: species or system rodents; conditions: in vivo
# Method: as §1
SMILES,alpha-2 adrenergic activity (pharmacological profile) (alpha-2 adrenoceptors),N-methylation in primates [1],metabolic N-methylation (N-methyl metabolites) [2],metabolism / methyl metabolite formation ([2]; precision cut liver slice assay),CNS activity (central nervous system),metabolism / methyl metabolite formation [2]
CCc1c(NC2=NCCN2)ccc2[nH]cnc12 [4-ethyl-5-(2-imidazolinylamino)benzimidazole],selective alpha-2 adrenergic agonist,rapidly and extensively N-methylated,N-methyl metabolites were found,,,
Cc1c(NC2=NCCN2)ccc2[nH]cnc12 [5-(2-Imidazolinylamino)-4-methylbenzimidazole],very potent and selective alpha-2 adrenergic agonists,,N-methyl metabolites were found,rapidly metabolized,very low CNS activity,
"Cc1c(N=C2NCCN2)cc(C#N)c2[nH]cnc12 [Example 1, 7-Cyano-5-(2-imidazolinylamino)-4-methylbenzimidazole]",,,,,very low CNS activity,no evidence of the methyl metabolite
